From patent US20160297829A1, “METHOD FOR PRODUCING AVENACIOLIDES AND USES THEREOF” (Academia Sinica, priority 2015, published 2016)
pIC50: −log10 of the molar value. Converted amounts (≈) assume the structure as drawn. “And” between values parts separate entries of the source, which are not always exact repeats. Identical values can stand only once. Like-named read-outs stand apart in the source and are kept apart here.

Legend:
[1] = system: B. subtilis ATCC 23857; assay: Minimum Inhibition Concentration (MIC) assay; assay type: cell-based; conditions: Bacillus subtilis, ATCC23857
Source text: (§1) Various strains of microorganisms were used in the present disclosure, including Acinetobacter baumannii (ATCO 17978), Staphylococcus aureus (ATCO 29213), methicillin-resistant Staphylococcus aureus (MRSA) (ATCO 33592), Bacillus subtilis (ATCO 23857), and Escherichia Coli (ATCO 25922), which were purchased from American Type Culture Collection (ATCO), and cultured in Mueller-Hinton (MH) II agar plates or in MH broth.
(§2) Minimum Inhibition Concentration (MIC) Assay
(§3) MIC assay is a standardized assay performed in accordance with the guidelines issued by Clinical and Laboratory Standard Institute (CLSI) that measures the ability of certain agent and/or a surface in inhibiting the growth of a microorganism or killing the microorganism after being in contact with that microorganism for 24 hrs. Accordingly, MIC is the lowest concentration of an anti-bacterial agent and/or a surface that will inhibit the visible growth of a microorganism after overnight culture.
(§4) In practice, microorganisms grown on the agar plates were re-suspended in phosphate-buffered saline (PBS) to an OD 600 of 0.1. Suitable amount of this suspension was added to the appropriate broth media at a final concentration of 5×10^5 colony-forming units (CFU)/mL. Then, 98 μL of the broth+cell solution for each strain was added to each well of 96-well assay plate. Solutions of the present compounds were freshly prepared in DMSO and then serial diluted in 2-fold steps in DMSO, resulting in a final concentrations of 0.004-256 μg/mL when diluted 1:50 in test broth. The initial inoculum for each strain was serially diluted in PBS and plated on appropriate agar plate media to ensure that the assay contained the desired number of CFU. MIC assay plates were incubated overnight at 37° C. under aerobic conditions.

[2] = system: S. aureus ATCC 29213; assay: Minimum Inhibition Concentration (MIC) assay; assay type: cell-based; conditions: Staphylococcus aureus, ATCC29213, overnight at 37° C.
Source text: as §1, §2, §3, §4

[3] = system: A. baumannii; assay: Transmission Electron Microscopy (TEM) of treated bacteria; assay type: cell-based, Acinetobacter baumannii
Experimental: (§5) FIG. 1 are TEM photographs of MRSA (a-f) and A. baumannii (g-l) after being treated with the compounds of example 2 (128 μM) and fosfomycin (64 μM), in which (a) and (g) are un-treated S. aureus and A. baumannii; (b) and […] are those treated with the compound 10d, while (c) and (i) are treated with the compound of 13d; (d) and (j) are treated with the compound 14; (e) and (k) are treated with the compound 15; (f) and […] are treated with fosfomycin, in which CW, CM, IM, and OM respectively denote cell walls, cell membranes, inner membranes, and outer membranes; and
(§6) Transmission Electron Microscopy (TEM)
(§7) Exponential phase bacteria were treated with compounds at 4×MIC for 1 hr at 37° C. Then, the cells were washed and fixed and cut into thin slices and photographed using a Thin-layer TEM.

[4] = system: E. coli ATCC 25922; assay: Minimum Inhibition Concentration (MIC) assay; assay type: cell-based, Escherichia Coli
Source text: as §1, §2, §3, §4

[5] = system: Mice macrophage cell line RAW 264.2; assay: AlamaBlue cell viability assay; assay type: cell-based; conditions: 24 hrs
Experimental: Mice macrophage cell line RAW 264.2 was used in the present disclosure. RAW 264.2 cells were cultured in RPMI 1640 medium supplemented with 10% fetal calf serum (FCS) and maintained in an environment of 5% CO2/95% air at 37° C.
AlamaBlue Cell Viability Assay
The alamarBlue cell viability assay uses a non-toxic, water-soluble resazurin dye that yields a fluorescent signal and a colorimetric change when incubated with metabolically active cells. The assay is based on the findings that metabolically active cells (or viable cells) may keep the culture medium in a reduced state, whereas the non-viable cells will turn the culture medium into an oxidized state, thereby rendering the redox indicator in the medium (i.e., resazurin dye) to convert from its non-fluorescent oxidized form (blue color) to its fluorescent reduced form (pink color). Thus, the cell viability may be monitored by the fluorescent signal changes at 590 nm.
Cells were plated in 96-well plates at a density of 5,000 cells/100 μL/well for 24 hrs, then 10 μL AlamarBlue™ reagent (AbD Serotee Ltd., Oxford, UK) and various concentrations (i.e., 12.5, 25, 50 or 100 μM) of the test compound (e.g., the compound of example 2) were added, and incubated for 24 hrs. The plates were then placed at a fluorescence reader and fluorescent signals at 590 nm were measured.
In general, mice macrophages were treated with various concentrations of the compounds of example 2 for 24 hrs, the viability of cells were then analyzed by fluorescence analysis in accordance with procedures described in “Materials and Methods” section.

[6] = target: MRSA MurA^WT (Staphylococcus aureus, UniProt Q5HEA0); assay: MuraA assay (malachite green); assay type: biochemical, methicillin-resistant Staphylococcus aureus (MRSA); conditions: IC50, MurA activity, MRSA MurA wild type 25 nM, UNAG 310 μM, PEP 620 μM, pH 7.6; 5 replicates
Experimental: (§8) In a standardized assay, MuraA enzymes were pre-incubated with the substrate UNAG and an inhibitor for 10 min at 37° C. To determine the influence of UNAG on the binding process, experiments were performed in the absence of UNAG during pre-incubation period. The reaction was initiated by the addition of the second substrate PEP, resulting in a total volume of […] with the following concentrations: E. Coli MurA or MRSA MurA 25 nM, UNAG 310 μM, PEP 620 μM, 50 mM HEPES, pH 7.6, DMSO 1% (v/v). The reaction was stopped after 60 min at 37° C. by adding 100 μL of Lanzetta reagent containing malachite green solution (0.045% (w/v)) and ammonium heptamolybdate (8.4% (v/v)) at a ratio of 3:1 and with 0.03% (w/v) Tergitol NP-40 as dye-stabilizing detergent. After 10 min, the absorbance at 620 nm was measured using a FlexStation 3 Microplate Reader (Molecular Devices). Finally, dose-response curves were generated by measuring the enzyme activity of five replicates at least 8 different compound concentrations. The resulting data were plotted and IC50 values indicating the concentration of the compound with a residual activity of 50% were determined.
(§9) Various types of MuraA enzymes, including those from E. Coli, wild type MRSA^WT, and MRSA^C119D mutant strain, were treated with any of the compounds 10d, 13d, or 14, as well as fosfomycin, in which MRSA^WT represents wild type MurA, and MRSA^C119D mutant strain represents MRSA strain in which the 119th amino acid residue, cysteine (C), is replaced by aspartic acid (D).

[7] = target: T1, MRSA MurA^C119D (Staphylococcus aureus, UniProt Q5HEA0, C119D); assay: MuraA assay (malachite green); assay type: biochemical, methicillin-resistant Staphylococcus aureus (MRSA); conditions: for IC50, MurA activity: MRSA MurA C119D mutant (fosfomycin resistant), 5 replicates
T1 sequence (Q5HEA0 1-421 C119D): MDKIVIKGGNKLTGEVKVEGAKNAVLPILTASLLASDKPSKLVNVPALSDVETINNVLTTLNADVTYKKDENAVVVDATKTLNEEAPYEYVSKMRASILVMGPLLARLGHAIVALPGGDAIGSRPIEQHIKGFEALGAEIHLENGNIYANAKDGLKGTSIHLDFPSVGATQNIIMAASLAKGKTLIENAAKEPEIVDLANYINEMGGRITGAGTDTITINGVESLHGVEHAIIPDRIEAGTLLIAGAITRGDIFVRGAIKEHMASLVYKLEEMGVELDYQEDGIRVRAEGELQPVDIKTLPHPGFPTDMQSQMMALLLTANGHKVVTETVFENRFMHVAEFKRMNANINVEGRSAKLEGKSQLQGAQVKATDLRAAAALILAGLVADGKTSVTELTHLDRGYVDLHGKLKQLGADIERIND
Experimental: as §8, §9

[8] = system: MRSA; assay: Transmission Electron Microscopy (TEM) of treated bacteria; assay type: cell-based, methicillin-resistant Staphylococcus aureus (MRSA)
Experimental: as §5, §6, §7

[9] = system: gram-positive bacteria, including MRSA; assay: Growth inhibition (MIC), summary over strains; assay type: cell-based; conditions: for MIC: Staphylococcus aureus, MRSA, text summary for compounds 10d and 13d over gram-positive strains; for anti-bacteria activity: statement in words
Source text: as §2, §3, §4
In this example, the inhibitory effect of the isolated avenaciolide derivatives of example 2 (i.e., compounds 10d, 13d, 14, and 15) on the growth of gram-positive bacteria, including MRSA, were tested; and the results are summarized in Table 1.

[10] = system: A. baumannii 17978; assay: Minimum Inhibition Concentration (MIC) assay; assay type: cell-based, Acinetobacter baumannii
Source text: as §1, §2, §3, §4

[11] = system: S. aureus ATCC 33592 (MRSA strain); assay: Minimum Inhibition Concentration (MIC) assay; assay type: cell-based, methicillin-resistant Staphylococcus aureus (MRSA); conditions: Staphylococcus aureus, overnight at 37° C.
Source text: as §1, §2, §3, §4

[12] = target: E coli MurA (Escherichia coli, UniProt P0A749); assay: biochemical; conditions: IC50, MurA activity, E coli MurA 25 nM, UNAG 310 μM, PEP 620 μM, pH 7.6; 5 replicates
E coli MurA, sequence (P0A749 whole entry): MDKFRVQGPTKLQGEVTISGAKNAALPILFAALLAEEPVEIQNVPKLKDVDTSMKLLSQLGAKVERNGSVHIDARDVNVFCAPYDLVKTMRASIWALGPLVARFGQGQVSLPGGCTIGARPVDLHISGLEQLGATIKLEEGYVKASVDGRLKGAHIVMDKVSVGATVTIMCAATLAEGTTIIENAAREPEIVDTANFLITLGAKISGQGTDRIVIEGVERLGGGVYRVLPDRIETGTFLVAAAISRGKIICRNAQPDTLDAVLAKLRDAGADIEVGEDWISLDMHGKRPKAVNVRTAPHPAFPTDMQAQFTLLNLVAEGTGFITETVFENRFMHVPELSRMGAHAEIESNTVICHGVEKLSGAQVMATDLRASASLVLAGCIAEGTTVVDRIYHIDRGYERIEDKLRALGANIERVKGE
Experimental: as §8, §9

[13] = B. subtilis ATCC 23857, overnight at 37° C., read-out: MIC
[14] = 128 μg/mL (FIG. 1 legend: 128 μM), treated for an hr
[15] = Escherichia coli, ATCC25922, overnight at 37° C., read-out: MIC
[16] = 12.5 or 25 μM, fluorescence 590 nm
[17] = 50 or 100 μM, fluorescence 590 nm
[18] = 17978, Acinetobacter baumannii, read-out: MIC for gram-negative bacteria
[19] = Acinetobacter baumannii, A. baumannii 17978, overnight at 37° C., read-out: MIC
[20] = fosfomycin 64 μg/mL, positive control

| Structure (SMILES) | MIC [1, 13] [µg/mL] | MIC [2] [µg/mL] | cell wall structure in TEM photographs [3, 14] | MIC [4, 15] [µg/mL] | growth (viability) of macrophages [5, 16] | growth (viability) of macrophages [5, 17] | pIC50 [6] | pIC50 [7] | cell wall structure in TEM photographs [8, 14] | MIC [9] [µg/mL] | MIC [10, 18] [µg/mL] | MIC [10, 19] [µg/mL] | MIC [11] [µg/mL] | pIC50 [12] | anti-bacteria activity [9] | IC50, MurA activity [7] | further results |
| --- | --- | --- | --- | --- | --- | --- | --- | --- | --- | --- | --- | --- | --- | --- | --- | --- | --- |
| C=C1C(=O)O[C@H]2C(=O)O[C@H](CCCCCCCC)[C@@H]12 [Compound 10d] | 64 (≈ 240 µM) | 16 (≈ 60.1 µM) | not affected | 128 (≈ 481 µM) | slightly affected | significant growth inhibition | 5.08 | 4.67 | ruptured | 16 to 32 (≈ 60.1 to 120 µM) | 256 (≈ 961 µM) | 256 (≈ 961 µM) | 32 (≈ 120 µM) | 4.97 to 6.05 and 6.05 | – | – | – |
| CCCCCCCC[C@H]1OC(=O)[C@@H]2OC(=O)[C@@H](C)[C@H]12 [Compound 15] | – | – | neither MRSA nor A. baumannii was affected | – | – | – | – | – | neither MRSA nor A. baumannii was affected | – | – | – | – | – | neither compound 14, nor compound 15 possessed any anti-bacteria activity | – | growth (viability) of macrophages ([5]; various concentrations (12.5, 25, 50 or 100 μM)): completely un-affected |
| C=C(C(=O)OC)[C@@H]1[C@@H](CCCCCCCC)OC(=O)[C@@H]1O [Compound 13d] | 32 (≈ 107 µM) | 32 (≈ 107 µM) | not affected | 128 (≈ 429 µM) | slightly affected | significant growth inhibition | 5.17 | 5.10 | ruptured | 16 to 32 (≈ 53.6 to 107 µM) | 256 (≈ 858 µM) | 256 (≈ 858 µM) | 16 (≈ 53.6 µM) | 4.97 to 6.05 and 5.55 | – | – | – |
| C[C@@H]1O[C@@H]1P(=O)(O)O [fosfomycin, reference compound] | – | 4 (≈ 29 µM) | – | 64 (≈ 464 µM) | – | – | 5.80 | – | – | – | – | – | 64 (≈ 464 µM) | 6.40 | – | failed to suppress and No | MIC [1]: 128 µg/mL (≈ 927 µM); cell wall structure in TEM photographs [3, 20]: ruptured; cell wall structure in TEM photographs [8, 20]: ruptured; MIC ([10]; Acinetobacter baumannii, 17978): 256 µg/mL (≈ 1850 µM) |
| C=C(C(=O)O)[C@@H]1[C@@H](CCCCCCCC)OC(=O)[C@@H]1O [Compound 14] | 256 (≈ 900 µM) | 256 (≈ 900 µM) | completely unaffected | – | slightly affected | significant growth inhibition | ~4.15 and 4.15 | – | slightly affected | – | – | – | 256 (≈ 900 µM) | 4.97 to 6.05 and 4.97 | neither compound 14, nor compound 15 possessed any anti-bacteria activity | in-effective and No | MIC ([4]; overnight at 37° C.): no; MIC ([10]; A. baumannii 17978, overnight at 37° C.): no |
